Assay results reported in patent US4105785A, “Anti-depressive 2-methyl-4-[(3'-dimethylamino)propylidine]-9,10-dihydrobenzo [4,5]cyclohepta[1,2b]furan compounds” (priority 1976, dated 1978).

Experiments:
[1] = test system: symptoms of trembling induced by oxotremorine; assay: Antioxotremoric action in the mouse; type: in vivo; details: 100 mg/kg PO, oxotremorine 2 mg/kg IP
[2] = test system: stereotypies induced by amphetamine; assay: Potentialization of stereotypies induced by amphetamine in the rat; type: in vivo; details: D-amphetamine 4 mg/kg IP
Procedure: (4) Potentialization of stereotypies induced by amphetamine in the rat.
The administration of D-amphetamine to the rat (4 mg/kg IP) results in stereotyped behaviour which can be potentialized or antogonized by various products.
The values given in table I show the percentage of potentialization. [Lapin I. P. and Schelkunov E. L. (1963) Second International Pharmacological Meeting 1, 205 Pergamon Press].

[3] = test system: heat stimulus (hot plate); assay: Analgesic activity, hot plate method; type: in vivo; details: mouse; for ED50: PO, 50% of animals exposed to heat stimulus longer than 5 seconds, read-out: ANALGESIA ED 50
Procedure: (7) Analgesic activity This was assessed on the mouse by the hot plate method. […] [Eddy N. B. and Leimbach D. J., Pharmacol. Exp. Ther., 107, 385-393 (1953)]

[4] = acute toxicity by the oral way in the mouse; details: in vivo; for LD50: PO; for mortality: 600 mg/kg PO, read-out: acute toxicity, deaths
Procedure: (1) acute toxicity by the oral way in the mouse
This was evaluated in the mouse by the method of Behrens and Karber [Arch. Exp. Path. Pharm. 177, 379 (1935)]

[5] = test system: reserpine-induced hypothermia; assay: Antagonism to reserpine-induced hypothermia; type: in vivo; details: mouse; for HYPOTHERMIA (Reserpine), maximal rise in temperature: reserpine 1 mg/kg IV
Procedure: (2) Antagonism to reserpine-induced hypothermia Administration of reserpine to the mouse (1 mg/kg IV) results in hypothermia which may be antagonized by certain anti-depressants. The values given in table I correspond, for the doses given, to the maximal rise in temperature. [Boissier et al., Therapie 1966, XXI, 109-117]

[6] = test system: catalepsy induced by prochlorperazine; assay: antagonism to catalepsy induced by prochlorperazine in the rat; type: in vivo
Description: (3) antagonism to catalepsy induced by prochlorperazine in the rat. Injection of prochlorperazine in the rat induces a cataleptic state which is more or less inhibited by antidepressants. The values given in table I show percentages of inhibition. [Boissier J. R. and Simon P., Therapie (1963), 18, 1257-77]

spontaneous motility = assay: Spontaneous motility in the mouse; type: in vivo; details: 1 hour after administration, 10 minutes
Procedure: (6) Spontaneous motility in the mouse One hour after the administration of the product to be studied, the animals are placed by groups of two in a circular corridor swept by beams of infrared light making it possible to count their movements from one place to another. The number of movements from one place to another is counted for 10 minutes and compared with the score obtained by a control group.

Structure (SMILES) | ANTI-OXOTREMORIC ACTION, percentage of inhibition of trembling symptoms [1] [%] | STEREOTYPIES (Amphetamine), percentage of potentialization ([2]; 5 mg/kg IP) | ANALGESIA (result in words) [3] | LD50 [4] [mg/kg] | action on reserpine-induced hypothermy (in words) [5] | HYPOTHERMIA (Reserpine), maximal rise in temperature ([5]; 50 mg/kg PO) | CATALEPSY (Prochlorperazine), percentage of inhibition ([6]; 40 mg/kg IP) [%] | SPONTANEOUS MOTILITY, percentage of decrease in number of movements (spontaneous motility; 100 mg/kg PO) [%] | STEREOTYPIES (Amphetamine), percentage of potentialization ([2]; 20 mg/kg PO) | ED50 [3] [mg/kg] | CATALEPSY (Prochlorperazine), percentage of inhibition ([6]; 20 mg/kg IP) | SPONTANEOUS MOTILITY, percentage of decrease in number of movements (spontaneous motility; 80 mg/kg PO) [%] | mortality [4] [%] | HYPOTHERMIA (Reserpine), maximal rise in temperature ([5]; 12.5 mg/kg PO) | HYPOTHERMIA (Reserpine), maximal rise in temperature ([5]; 25 mg/kg PO)
Cc1cc2c(o1)CCc1ccccc1C2=CCCN(C)C [compound no. 3, methyl-2 [(dimethylamino-3')-propylidene]-4 dihydro-9,10 benzo-[4,5] cyclohepta [1,2-b] furan] | -75 | +9,2% | non specific | 300 | significant action | +3 °C | -33.3 | 84 |  |  |  |  |  |  | 
CN(C)CCC=C1c2ccccc2CCc2ccccc21 [AMITRIPTYLINE, reference compound] | -100 |  |  | 250 |  | +2.5 °C |  |  | +65% | 16 | -33,3% | 80 |  |  | 
Cc1ccc2c(c1)CCc1oc(C)cc1C2=CCCN(C)C [compound no. 1, dimethyl-2,7 [(dimethylamino-3')propylidene]-4 dihydro-9,10 benzo-[4,5] cyclohepta [1,2-b] furan] | -35 | +105% |  |  |  |  |  | 95.3 |  | 48 | -26.1% |  | 10 | +1 °C | 
Cc1ccc2c(c1)C(=CCCN(C)C)c1cc(C)oc1CC2 [compound no. 2, dimethyl-2,6 [(dimethylamino-3')]-propylidene-4 dihydro-9,10 benzo [4,5] cyclohepta [1,2-b] furan] | -30 | +141% |  |  |  |  |  | 84.4 |  | 47 | -44.4% |  | 10 |  | +0.6 °C
